In PubChem BioAssay (NCI):
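Compound exposure: 48 hours, 5 concentrations, 96-well plates. Abbreviation: GI50, concentration required for 50% inhibition of growth. TGI: total growth inhibition.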

What was measured:
Experiment in all cases: DTP human tumour cell line panel, 48 h
SR leukemia = system: SR leukemia
KM12 colon = system: KM12 colon
HT29 colon = system: HT29 colon
RXF 393 renal = system: RXF 393 renal
MCF7 breast = system: MCF7 breast
HCT-15 colon = system: HCT-15 colon
OVCAR-5 ovarian = system: OVCAR-5 ovarian
UACC-62 melanoma = system: UACC-62 melanoma
CAKI-1 renal = system: CAKI-1 renal
U251 CNS = system: U251 CNS
NCI-H23 lung = system: NCI-H23 lung
SF-539 CNS = system: SF-539 CNS
HCT-116 colon = system: HCT-116 colon
CCRF-CEM leukemia = system: CCRF-CEM leukemia
SF-268 CNS = system: SF-268 CNS
COLO 205 colon = system: COLO 205 colon
IGROV1 ovarian = system: IGROV1 ovarian
K-562 leukemia = system: K-562 leukemia
NCI-H460 lung = system: NCI-H460 lung
MDA-MB-231 breast = system: MDA-MB-231 breast
SK-MEL-28 melanoma = system: SK-MEL-28 melanoma
TK-10 renal = system: TK-10 renal
HL-60(TB) leukemia = system: HL-60(TB) leukemia
M14 melanoma = system: M14 melanoma
SK-OV-3 ovarian = system: SK-OV-3 ovarian
ACHN renal = system: ACHN renal
DU-145 prostate = system: DU-145 prostate
SNB-19 CNS = system: SNB-19 CNS
HCC-2998 colon = system: HCC-2998 colon
NCI-H226 lung = system: NCI-H226 lung
MDA-MB-468 breast = system: MDA-MB-468 breast
MALME-3M melanoma = system: MALME-3M melanoma
SK-MEL-2 melanoma = system: SK-MEL-2 melanoma
HOP-92 NSCLC = system: HOP-92 NSCLC
RPMI-8226 leukemia = system: RPMI-8226 leukemia
HOP-62 NSCLC = system: HOP-62 NSCLC
SK-MEL-5 melanoma = system: SK-MEL-5 melanoma
MOLT-4 leukemia = system: MOLT-4 leukemia
SW-620 colon = system: SW-620 colon
A549 NSCLC = system: A549 NSCLC
LOX IMVI melanoma = system: LOX IMVI melanoma
SNB-75 CNS = system: SNB-75 CNS
A498 renal = system: A498 renal
T-47D breast = system: T-47D breast
OVCAR-3 ovarian = system: OVCAR-3 ovarian
SF-295 CNS = system: SF-295 CNS
EKVX NSCLC = system: EKVX NSCLC
NCI-H522 lung = system: NCI-H522 lung
NCI/ADR-RES ovarian = system: NCI/ADR-RES ovarian
OVCAR-4 ovarian = system: OVCAR-4 ovarian
HS 578T breast = system: HS 578T breast
UACC-257 melanoma = system: UACC-257 melanoma
BT-549 breast = system: BT-549 breast
PC-3 prostate = system: PC-3 prostate
SN12C renal = system: SN12C renal
OVCAR-8 ovarian = system: OVCAR-8 ovarian
786-0 renal = system: 786-0 renal
UO-31 renal = system: UO-31 renal
MDA-MB-435 = system: MDA-MB-435

## CC(=O)NCC1=C(C)C=C2C(=O)[C@](C)(O)C3(CC3)C(C)=C21
SR leukemia
  GI50: 5.7 µM
  TGI: > 100000 nM
KM12 colon
  GI50: 257 nM
  TGI: 5.85 µM
HT29 colon
  GI50: 35.6 nM
RXF 393 renal
  GI50: 16.4 nM
  TGI: 32.8 nM
MCF7 breast
  GI50: 214 nM
  TGI: > 20.6 µM
HCT-15 colon
  GI50: 44 nM
  TGI: 325 nM
OVCAR-5 ovarian
  GI50: 34.2 nM
  TGI: 240 nM
UACC-62 melanoma
  GI50: 132 nM
  TGI: 0.278 µM
CAKI-1 renal
  GI50: 40.4 nM
  TGI: 0.791 µM
U251 CNS
  GI50: 51 nM
NCI-H23 lung
  GI50: 15.9 nM
  TGI: 37.2 nM
SF-539 CNS
  GI50: 22.5 nM
  TGI: 56.5 nM
HCT-116 colon
  GI50: 50.9 nM
CCRF-CEM leukemia
  GI50: 13.5 µM
  TGI: > 84900 nM
SF-268 CNS
  GI50: 33.2 nM
  TGI: 0.577 µM
COLO 205 colon
  GI50: 39 nM
  TGI: 162 nM
IGROV1 ovarian
  GI50: 28 nM
  TGI: 80.4 nM
K-562 leukemia
  GI50: 15 µM
  TGI: > 100 µM
NCI-H460 lung
  GI50: 22.5 nM
  TGI: 132 nM
MDA-MB-231 breast
  GI50: 67 nM
  TGI: 306 nM
SK-MEL-28 melanoma
  GI50: 125 nM
  TGI: 293 nM
TK-10 renal
  GI50: 36.4 nM
HL-60(TB) leukemia
  GI50: 27.9 nM
  TGI: 876 nM
M14 melanoma
  GI50: 71.2 nM
  TGI: 220 nM
SK-OV-3 ovarian
  GI50: 30.1 nM
  TGI: 0.0993 µM
ACHN renal
  GI50: 22.8 nM
  TGI: 57.8 nM
DU-145 prostate
  GI50: 27.5 nM
  TGI: 233 nM
SNB-19 CNS
  GI50: 163 nM
  TGI: 0.751 µM
HCC-2998 colon
  GI50: 28.7 nM
  TGI: 103 nM
NCI-H226 lung
  GI50: 143 nM
  TGI: 0.615 µM
MDA-MB-468 breast
  GI50: < 13.6 nM
  TGI: 30.3 nM
MALME-3M melanoma
  GI50: 60.2 nM
  TGI: 181 nM
SK-MEL-2 melanoma
  GI50: 179 nM
  TGI: 0.346 µM
HOP-92 NSCLC
  GI50: 26.1 nM
  TGI: 70.2 nM
RPMI-8226 leukemia
  GI50: 22.9 µM
  TGI: > 83.5 µM
HOP-62 NSCLC
  GI50: 24.6 nM
  TGI: 0.0761 µM
SK-MEL-5 melanoma
  GI50: 70.4 nM
  TGI: 216 nM
MOLT-4 leukemia
  GI50: 8.44 µM
  TGI: > 100 µM
SW-620 colon
  GI50: 13.4 µM
  TGI: 38.7 µM
A549 NSCLC
  GI50: 31.2 nM
  TGI: 0.33 µM
LOX IMVI melanoma
  GI50: 136 nM
  TGI: 354 nM
SNB-75 CNS
  GI50: 19.7 nM
  TGI: 73.5 nM
A498 renal
  GI50: 25.7 nM
  TGI: 65.5 nM
T-47D breast
  GI50: 43.8 nM
  TGI: 840 nM
OVCAR-3 ovarian
  GI50: 39.7 nM
  TGI: 472 nM
SF-295 CNS
  GI50: 26.2 nM
  TGI: 122 nM
EKVX NSCLC
  GI50: 116 nM
  TGI: 0.356 µM
NCI-H522 lung
  GI50: 254 nM
  TGI: 0.997 µM
NCI/ADR-RES ovarian
  GI50: 64.8 nM
  TGI: 0.323 µM
OVCAR-4 ovarian
  GI50: 71 nM
  TGI: 322 nM
HS 578T breast
  GI50: 204 nM
  TGI: 0.678 µM
UACC-257 melanoma
  GI50: 93.4 nM
  TGI: 0.29 µM
BT-549 breast
  GI50: 27.7 nM
  TGI: 0.0991 µM
PC-3 prostate
  GI50: 68 nM
  TGI: 0.898 µM

## COc1ccc(C(C)=C(c2ccc(OCCCN(C)C)cc2)c2ccc(OCCCN(C)C)cc2)cc1
SN12C renal
  GI50: 2950 nM
  TGI: 5.72 µM
SR leukemia
  GI50: 0.523 µM
  TGI: 1730 nM
KM12 colon
  GI50: 2600 nM
  TGI: 5.5 µM
HT29 colon
  GI50: 426 nM
  TGI: 867 nM
OVCAR-8 ovarian
  GI50: 3.62 µM
  TGI: 7.6 µM
RXF 393 renal
  GI50: 1090 nM
  TGI: 3920 nM
MCF7 breast
  GI50: 418 nM
  TGI: 3.06 µM
HCT-15 colon
  GI50: 1090 nM
  TGI: 3790 nM
OVCAR-5 ovarian
  GI50: 2820 nM
  TGI: 5550 nM
UACC-62 melanoma
  GI50: 2970 nM
  TGI: 5.73 µM
CAKI-1 renal
  GI50: 2710 nM
  TGI: 5.35 µM
U251 CNS
  GI50: 2710 nM
  TGI: 6 µM
786-0 renal
  GI50: 491 nM
  TGI: 1460 nM
NCI-H23 lung
  GI50: 2900 nM
  TGI: 5880 nM
UO-31 renal
  GI50: 2740 nM
  TGI: 5.4 µM
SF-539 CNS
  GI50: 788 nM
  TGI: 2850 nM
HCT-116 colon
  GI50: 795 nM
  TGI: 3.21 µM
MDA-MB-435
  GI50: 537 nM
  TGI: 1830 nM
CCRF-CEM leukemia
  GI50: 0.593 µM
  TGI: 1960 nM
SF-268 CNS
  GI50: 2800 nM
  TGI: 5.94 µM
COLO 205 colon
  GI50: 799 nM
  TGI: 3080 nM
IGROV1 ovarian
  GI50: 2960 nM
  TGI: 5750 nM
K-562 leukemia
  GI50: 0.621 µM
  TGI: 5.04 µM
NCI-H460 lung
  GI50: 899 nM
  TGI: 3430 nM
MDA-MB-231 breast
  GI50: 1550 nM
  TGI: 4230 nM
SK-MEL-28 melanoma
  GI50: 2490 nM
  TGI: 5070 nM
TK-10 renal
  GI50: 3380 nM
  TGI: 6.36 µM
HL-60(TB) leukemia
  GI50: 735 nM
  TGI: 3030 nM
M14 melanoma
  GI50: 427 nM
  TGI: 930 nM
SK-OV-3 ovarian
  GI50: 3260 nM
  TGI: 6.19 µM
ACHN renal
  GI50: 2620 nM
  TGI: 5230 nM
DU-145 prostate
  GI50: 2100 nM
  TGI: 4600 nM
SNB-19 CNS
  GI50: 3200 nM
  TGI: 6.06 µM
HCC-2998 colon
  GI50: 2160 nM
  TGI: 4790 nM
NCI-H226 lung
  GI50: 3000 nM
  TGI: 6.28 µM
MDA-MB-468 breast
  GI50: 705 nM
  TGI: 3010 nM
MALME-3M melanoma
  GI50: 558 nM
  TGI: 1890 nM
SK-MEL-2 melanoma
  GI50: 3330 nM
  TGI: 6.33 µM
HOP-92 NSCLC
  GI50: 1100 nM
  TGI: 4270 nM
RPMI-8226 leukemia
  GI50: 2.18 µM
  TGI: 8.53 µM
HOP-62 NSCLC
  GI50: 3080 nM
  TGI: 6.17 µM
SK-MEL-5 melanoma
  GI50: 2570 nM
  TGI: 5200 nM
MOLT-4 leukemia
  GI50: 1.08 µM
  TGI: 4.05 µM
SW-620 colon
  GI50: 0.982 µM
  TGI: 3.62 µM
A549 NSCLC
  GI50: 2990 nM
  TGI: 7.48 µM
LOX IMVI melanoma
  GI50: 625 nM
  TGI: 2080 nM
SNB-75 CNS
  GI50: 2130 nM
  TGI: 4660 nM
A498 renal
  GI50: 2730 nM
  TGI: 5510 nM
T-47D breast
  GI50: 1570 nM
  TGI: 4980 nM
OVCAR-3 ovarian
  GI50: 678 nM
  TGI: 2300 nM
SF-295 CNS
  GI50: 2490 nM
  TGI: 5290 nM
EKVX NSCLC
  GI50: 2980 nM
  TGI: 5.89 µM
NCI-H522 lung
  GI50: 2420 nM
  TGI: 5.33 µM
NCI/ADR-RES ovarian
  GI50: 3090 nM
  TGI: 6.15 µM
OVCAR-4 ovarian
  GI50: 2220 nM
  TGI: 5220 nM
HS 578T breast
  GI50: 2440 nM
  TGI: 6.22 µM
UACC-257 melanoma
  GI50: 3270 nM
  TGI: 6.42 µM
BT-549 breast
  GI50: 3200 nM
  TGI: 6.22 µM
PC-3 prostate
  GI50: 2750 nM
  TGI: 6.07 µM
